Assay results: US5424451A, “Process for preparing aminoalkylcarbamic esters of eseroline” (priority 1992, dated 1995)
pIC50: −log10 of the molar value. Read-outs that look alike come from different tables or passages of the source.

Tests used:
[1] = biological target: T1, acetylcholinesterase from human red blood cells (Homo sapiens, UniProt P22303); experiment: Inhibition of acetylcholinesterase from human erythrocyte (Ellman colorimetric method); format: biochemical; conditions: for pIC50: contact time 10'; for Activity against human red blood cells acetylcholinesterase (in words): Table 2 results
T1 construct: purchased Sigma Chemical; host or cells: human erythrocyte

[2] = in vivo; conditions: rat, po
[3] = biological target: T2, butyrylcholinesterase from human serum (Homo sapiens, UniProt P06276); experiment: Inhibition of butyrylcholinesterase from human serum (Ellman colorimetric method); format: biochemical
T2 construct: purchased Sigma Chemical; host or cells: human serum

[4] = Cholinesterase Inhibition IC50, AChE hRBC

T1 sequence (P22303 32-617 isoform P22303-2 limits assumed): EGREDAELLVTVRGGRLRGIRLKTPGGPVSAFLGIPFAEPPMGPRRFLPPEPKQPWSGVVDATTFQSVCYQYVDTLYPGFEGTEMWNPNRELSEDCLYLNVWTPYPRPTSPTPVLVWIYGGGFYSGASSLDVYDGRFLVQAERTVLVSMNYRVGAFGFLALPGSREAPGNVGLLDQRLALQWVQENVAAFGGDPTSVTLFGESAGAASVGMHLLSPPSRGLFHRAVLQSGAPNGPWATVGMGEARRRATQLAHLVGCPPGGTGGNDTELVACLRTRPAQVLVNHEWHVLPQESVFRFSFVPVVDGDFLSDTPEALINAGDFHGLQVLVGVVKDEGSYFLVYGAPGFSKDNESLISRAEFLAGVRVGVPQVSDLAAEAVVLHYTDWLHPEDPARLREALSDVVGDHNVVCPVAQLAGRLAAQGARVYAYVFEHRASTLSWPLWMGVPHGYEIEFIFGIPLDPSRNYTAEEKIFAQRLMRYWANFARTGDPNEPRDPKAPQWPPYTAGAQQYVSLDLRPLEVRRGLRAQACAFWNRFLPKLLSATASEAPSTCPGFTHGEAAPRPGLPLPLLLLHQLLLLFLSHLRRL
T2 sequence (P06276 29-602): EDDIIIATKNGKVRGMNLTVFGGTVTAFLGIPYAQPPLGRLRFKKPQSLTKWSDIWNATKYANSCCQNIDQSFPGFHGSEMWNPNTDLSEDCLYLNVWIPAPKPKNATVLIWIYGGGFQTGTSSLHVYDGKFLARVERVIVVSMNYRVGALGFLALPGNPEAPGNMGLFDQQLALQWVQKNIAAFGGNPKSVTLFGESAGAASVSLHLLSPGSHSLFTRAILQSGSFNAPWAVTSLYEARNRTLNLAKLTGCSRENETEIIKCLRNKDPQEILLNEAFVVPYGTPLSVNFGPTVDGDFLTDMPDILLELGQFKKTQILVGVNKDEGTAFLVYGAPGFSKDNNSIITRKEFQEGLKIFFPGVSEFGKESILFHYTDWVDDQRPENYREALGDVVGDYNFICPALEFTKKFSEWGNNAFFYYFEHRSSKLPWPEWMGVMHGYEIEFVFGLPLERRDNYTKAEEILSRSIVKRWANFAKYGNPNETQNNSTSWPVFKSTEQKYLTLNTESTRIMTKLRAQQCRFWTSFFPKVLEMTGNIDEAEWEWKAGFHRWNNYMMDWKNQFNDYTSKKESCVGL

With `CC(=O)N1CCN(CCCCCCCCCCNC(=O)Oc2ccc3c(c2)[C@]2(C)CCN(C)[C@@H]2N3C)CC1` [MF 252] the pIC50 [1, 4] was 7.57 and the “Activity against human red blood cells acetylcholinesterase (in words)” value (shortened to “Activity”) [1] was “Particularly active”.

In the case of `CN1CC[C@@]2(C)c3cc(OC(=O)NCCCCCCCCCCN4CCCC4)ccc3N(C)[C@@H]12` [MF 253], the pIC50 [1, 4] was 7.52 and the “Activity” value [1] was “Particularly active”.

With `CCN(CC)CCCCCCCCCCCCNC(=O)Oc1ccc2c(c1)[C@]1(C)CCN(C)[C@@H]1N2C` [MF 254] the pIC50 [1, 4] was 7.30 and the “Activity” value [1] was “Particularly active”.

With `CN1CCN(CCCCCCCCCCNC(=O)Oc2ccc3c(c2)[C@]2(C)CCN(C)[C@@H]2N3C)CC1` [MF 255] the pIC50 [1, 4] was 7.30 and the “Activity” value [1] was “Particularly active”.

In the case of `CCCN(CCC)CCCCCCCCNC(=O)Oc1ccc2c(c1)[C@]1(C)CCN(C)[C@@H]1N2C` [MF 256], the LD50 [2] was 18.3 mg/kg, the pIC50 [1, 4] was 7.10 and the “Activity” value [1] was “Particularly active”.

With `CCCN(CCC)CCCCCCCCCCNC(=O)Oc1ccc2c(c1)[C@]1(C)CCN(C)[C@@H]1N2C` [MF 257] the pIC50 [1, 4] was 7.52 and the “Activity” value [1] was “Particularly active”.

Work on `CCCN(CCC)CCCCCCCCCCCCNC(=O)Oc1ccc2c(c1)[C@]1(C)CCN(C)[C@@H]1N2C` [MF 258] yielded a pIC50 [1, 4] of 6.00.

With `CCCN1CCN(CCCCCCCCNC(=O)Oc2ccc3c(c2)[C@]2(C)CCN(C)[C@@H]2N3C)CC1` [MF 261] the pIC50 [1, 4] was 7.70 and the “Activity” value [1] was “Particularly active”.

With `CCN1CCN(CCCCCCCCNC(=O)Oc2ccc3c(c2)[C@]2(C)CCN(C)[C@@H]2N3C)CC1` [MF 262] the pIC50 [1, 4] was 7.52 and the “Activity” value [1] was “Particularly active”.

With `CN(CCCCCCCCNC(=O)Oc1ccc2c(c1)[C@]1(C)CCN(C)[C@@H]1N2C)c1ccccc1` [MF 263] the pIC50 [1, 4] was 7.30 and the “Activity” value [1] was “Particularly active”.

For `CN1CC[C@@]2(C)c3cc(OC(=O)NCCCCCCCCN4CCC5(CC4)OCCO5)ccc3N(C)[C@@H]12` [MF 265], the pIC50 [1, 4] was 7.10 and the “Activity” value [1] was “Particularly active”.

For `CN1CC[C@@]2(C)c3cc(OC(=O)NCCCCCCCCN4CCN(Cc5ccccc5)CC4)ccc3N(C)[C@@H]12` [MF 266], the pIC50 [1, 4] was 7.15 and the “Activity” value [1] was “Particularly active”.

Work on `C[C@@H]1CN(CCCCCCCCNC(=O)Oc2ccc3c(c2)[C@]2(C)CCN(C)[C@@H]2N3C)C[C@H](C)O1` [MF 268, 8-(cis-2,6-dimethylmorpholinyl)octylcarbamoyl eseroline] yielded a pIC50 [3] of 6.74, an LD50 [2] of 56 mg/kg and a pIC50 [1, 4] of 7.15. For the same compound, the “Activity” value [1] was “Particularly active”.

Work on `CN1CC[C@@]2(C)c3cc(OC(=O)NCCCCCCCC(=O)N4CCOCC4)ccc3N(C)[C@@H]12` [MF 269] yielded a pIC50 [1, 4] of 6.92.

With `CC(C)CN1CCN(CCCCCCCCNC(=O)Oc2ccc3c(c2)[C@]2(C)CCN(C)[C@@H]2N3C)CC1` [MF 270] the pIC50 [1, 4] was 7.22.

With `COCCN(CCCCCCCCNC(=O)Oc1ccc2c(c1)[C@]1(C)CCN(C)[C@@H]1N2C)CCOC` [MF 271] the pIC50 [1, 4] was 7.30 and the “Activity” value [1] was “Particularly active”.

With `CCCCN1CCN(CCCCCCCCNC(=O)Oc2ccc3c(c2)[C@]2(C)CCN(C)[C@@H]2N3C)CC1` [MF 273] the pIC50 [1, 4] was 7.52 and the “Activity” value [1] was “Particularly active”.

Compound `CC(=O)N1CCN(CCCCCCCCCCCCNC(=O)Oc2ccc3c(c2)[C@]2(C)CCN(C)[C@@H]2N3C)CC1` [MF 275] has a pIC50 [1, 4] of 7.30.

In the case of `C[C@@H]1CN(CCCCCCCCNC(=O)Oc2ccc3c(c2)[C@]2(C)CCN(C)[C@@H]2N3C)C[C@@H](C)O1` [MF 276, 8-(trans-2,6-dimethyl)morpholinyloctylcarbamoyl eseroline], the pIC50 ([3]; read-out: Cholinesterase Inhibition IC50, BuChE hserum, contact time 10') was 6.60, the “Activity” value [1] was “Particularly active” and the pIC50 ([1]; read-out: Cholinesterase Inhibition IC50, AChE hRBC) was 7.15.
